Results on four molecules are retold here after patent US20030004207A1, “USE OF COMPOUNDS WHICH ACTIVATE A 5-HT RECEPTOR TO TREAT URINARY INCONTINENCE” (priority 1999, published 2003).

One assay deals with T1, human 5-HT1F receptor (Homo sapiens, UniProt P30939).
T1 construct: expressed in transfected cells
T1 sequence (P30939 1-366): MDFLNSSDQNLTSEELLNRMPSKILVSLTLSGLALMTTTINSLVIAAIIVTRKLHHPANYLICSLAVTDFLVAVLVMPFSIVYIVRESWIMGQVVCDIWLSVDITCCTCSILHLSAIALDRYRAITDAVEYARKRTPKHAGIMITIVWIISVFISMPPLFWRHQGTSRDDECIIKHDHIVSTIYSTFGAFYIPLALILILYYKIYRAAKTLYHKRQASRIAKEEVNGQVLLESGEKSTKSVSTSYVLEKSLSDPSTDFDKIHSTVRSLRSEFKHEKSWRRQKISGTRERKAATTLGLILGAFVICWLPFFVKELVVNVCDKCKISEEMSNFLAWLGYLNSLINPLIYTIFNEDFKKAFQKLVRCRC
Briefly: Radioligand competition binding, human 5-HT1F receptor ([3H]-serotonin). To be noted: read-out: Affinity at 5-HT1F (Ki ± SEM). The method, then: (§1) The binding of a test compound to a receptor of interest was generally evaluated by competitive binding assays using membrane preparations derived from cells which expressed the receptor. First, conditions were determined which allowed measurement of the specific binding of a compound known to bind to the receptor. Then, the binding of the known compound to the receptor in membrane preparations was evaluated in the presence of several different concentrations of the test compound.
(§2) The binding properties of compounds at different human receptors were determined in vitro using cultured cell lines that selectively express the receptor of interest. These cell lines were prepared by transfecting the cloned cDNA or cloned genomic DNA or constructs containing both genomic DNA and cDNA encoding the human receptors as follows:
(§3) Human 5HT1B, 5HT1D, 5HT1E, 5HT1F, and 5HT7 Receptors:
(§4) The cell lysates of LM(tk-) clonal cell line stably transfected with the genes encoding each of these 5-HT receptor-subtypes were prepared as described above. Cell membranes were suspended in 50 mM Tris-HCl buffer (pH 7.4 at 37° C.) containing 10 mM MgCl2, 0.2 mM EDTA, 10 μM pargyline, and 0.1% ascorbate. The affinities of compounds were determined in equilibrium competition binding assays by incubation for 30 minutes at 37° C. in the presence of 5 nM [^3H]-serotonin. Nonspecific binding was determined in the presence of 10 μM serotonin. The bound radioligand was separated by filtration through GF/B filters using a cell harvester.
(In general: Loss of bound radioactivity is the signal in a displacement assay; it reports binding, not function.)

Another assay concerns the target T2, human 5-HT2B receptor (Homo sapiens, UniProt P41595).
T2 construct: expressed in transfected cells
The assay can be described thus: Radioligand binding, human 5-HT2B receptor. Here is the method:
as §1
(§5) Other 5-HT Receptors: The binding assays using 5-HT4 were preformed according to the procedures described in U.S. Pat. No. 5,766,879, the disclosure of which is hereby incorporated by reference in its entirety into this application. Other serotonin receptor binding assays were preformed according to published methods: 5-HT2B: Kursar et al., 1992; 5-HT2C: Saltzman et al., 1991; 5-HT3: Hoyer and Neijt, 1987; 5-HT5A: Plassat et al., 1992; 5-HT5B: Matthes et al., 1993; 5-HT6: Kohen et al., 1996.

In the next assay the target is T3, human 5-HT1E receptor (Homo sapiens, UniProt P28566).
T3 construct: expressed in transfected cells
T3 sequence (P28566 whole entry): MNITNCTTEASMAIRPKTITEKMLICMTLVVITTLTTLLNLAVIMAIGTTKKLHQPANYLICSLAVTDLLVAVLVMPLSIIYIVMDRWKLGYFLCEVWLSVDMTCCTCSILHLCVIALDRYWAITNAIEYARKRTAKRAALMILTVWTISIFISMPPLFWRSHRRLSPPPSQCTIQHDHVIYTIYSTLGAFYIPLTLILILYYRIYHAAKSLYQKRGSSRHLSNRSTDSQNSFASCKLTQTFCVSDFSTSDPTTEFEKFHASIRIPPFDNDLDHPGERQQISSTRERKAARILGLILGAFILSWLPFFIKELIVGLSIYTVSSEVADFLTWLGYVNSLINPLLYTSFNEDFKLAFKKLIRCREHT
Briefly: Radioligand competition binding, human 5-HT1E receptor ([3H]-serotonin). To be noted: read-out: Affinity at 5-HT1E (Ki ± SEM). Here is the method: as §1, §2, §3, §4

For the next assay, the target named is T4, human 5-HT7 receptor (Homo sapiens, UniProt P34969).
T4 construct: expressed in transfected cells
T4 sequence (P34969 whole entry): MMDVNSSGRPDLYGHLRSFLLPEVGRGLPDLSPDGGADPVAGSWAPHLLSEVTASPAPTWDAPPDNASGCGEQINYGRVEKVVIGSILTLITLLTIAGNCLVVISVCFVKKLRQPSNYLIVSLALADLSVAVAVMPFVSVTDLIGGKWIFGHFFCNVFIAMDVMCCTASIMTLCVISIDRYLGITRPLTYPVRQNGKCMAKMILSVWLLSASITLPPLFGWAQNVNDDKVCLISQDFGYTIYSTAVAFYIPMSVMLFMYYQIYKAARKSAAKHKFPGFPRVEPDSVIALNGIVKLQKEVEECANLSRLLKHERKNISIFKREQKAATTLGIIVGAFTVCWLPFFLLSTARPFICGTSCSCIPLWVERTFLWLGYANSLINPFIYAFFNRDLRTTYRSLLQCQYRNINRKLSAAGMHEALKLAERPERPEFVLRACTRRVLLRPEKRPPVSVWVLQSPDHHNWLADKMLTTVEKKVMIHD
The assay can be described thus: Radioligand competition binding, human 5-HT7 receptor ([3H]-serotonin). As to conditions: read-out: Affinity at 5-HT7 (Ki ± SEM). Here is the method:
as §1, §2, §3
(§6) The cell lysates of LM(tk-) clonal cell line stably transfected with the genes encoding each of these 5-HT receptor-subtypes were prepared as described above. Cell membranes were suspended in 50 mM Tris-HCl buffer (pH 7.4 at 37° C.) containing 10 mM MgCl2, 0.2 mM EDTA, 10 μM pargyline, and 0.1% ascorbate. […] Nonspecific binding was determined in the presence of 10 μM serotonin. […]

Assay [1] relates to distension-induced rhythmic contractions of the rat bladder. The assay can be described thus: Distension-induced rhythmic contraction (DIRC) model of the micturition reflex. Type of assay: in vivo. To be noted: for Effect on distension-induced rhythmic contractions of the rat bladder: urethane-anesthetized female rat, 0.1 mg/kg. Here is the method: The effects of compounds on the micturition reflex were assessed in the “distension-induced rhythmic contraction” (DIRC) model in rats, as described in previous publications (e.g. Maggi et al., 1987; Morikawa et al., 1992).
Female Sprague Dawley rats weighing approximately 300 g were anesthetized with subcutaneous urethane (1.2 g/kg). The trachea was cannulated with PE240 tubing to provide a clear airway throughout the experiment. A midline abdominal incision was made and the left and right ureters were isolated. The ureters were ligated distally (to prevent escape of fluids from the bladder) and cannulated proximally with PE10 tubing. The incision was closed using 4-0 silk sutures, leaving the PE10 lines routed to the exterior for the elimination of urine. The bladder was cannulated via the transurethral route using PE50 tubing inserted 2.5 cm beyond the urethral opening. This cannula was secured to the tail using tape and connected to a pressure transducer. To prevent leakage from the bladder, the cannula was tied tightly to the exterior urethral opening using 4-0 silk.
To initiate the micturition reflex, the bladder was first emptied by applying pressure to the lower abdomen, and then filled with normal saline in 100 μl increments (maximum=2 ml) until spontaneous bladder contractions occurred (typically 20-40 mmHg at a rate of one contraction every 1 to 2 minutes. Once a regular rhythm was established, vehicle (saline) or 5-HT1F-selective compounds were administered i.p. to explore their effects on bladder activity. In some instances, a compound known to affect the micturition reflex (e.g. the GABAB receptor agonist APMPA [3-aminopropyl-2-methyl-phosphinic acid]) was given as a “positive control”.

A further assay deals with T5, human 5-HT4 receptor (Homo sapiens, UniProt Q13639).
T5 construct: expressed in transfected cells
T5 sequence (Q13639 whole entry): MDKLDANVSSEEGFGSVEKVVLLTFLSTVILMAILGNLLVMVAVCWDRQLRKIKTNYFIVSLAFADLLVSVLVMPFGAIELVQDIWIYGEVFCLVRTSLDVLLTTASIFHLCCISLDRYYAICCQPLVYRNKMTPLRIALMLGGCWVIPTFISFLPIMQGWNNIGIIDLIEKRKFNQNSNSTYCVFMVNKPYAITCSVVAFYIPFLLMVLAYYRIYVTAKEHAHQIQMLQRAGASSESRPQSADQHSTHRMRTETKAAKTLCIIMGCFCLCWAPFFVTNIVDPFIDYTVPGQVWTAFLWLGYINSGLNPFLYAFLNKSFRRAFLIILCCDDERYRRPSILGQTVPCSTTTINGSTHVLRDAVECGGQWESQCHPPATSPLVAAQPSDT
The assay can be described thus: Radioligand binding, human 5-HT4 receptor. To be noted: read-out: Affinity at 5-HT4 (Ki ± SEM). Here is the method: as §1, §5

The target of a further assay is T6, human 5-HT1D receptor (Homo sapiens, UniProt P28221).
T6 construct: expressed in transfected cells
T6 sequence (P28221 whole entry): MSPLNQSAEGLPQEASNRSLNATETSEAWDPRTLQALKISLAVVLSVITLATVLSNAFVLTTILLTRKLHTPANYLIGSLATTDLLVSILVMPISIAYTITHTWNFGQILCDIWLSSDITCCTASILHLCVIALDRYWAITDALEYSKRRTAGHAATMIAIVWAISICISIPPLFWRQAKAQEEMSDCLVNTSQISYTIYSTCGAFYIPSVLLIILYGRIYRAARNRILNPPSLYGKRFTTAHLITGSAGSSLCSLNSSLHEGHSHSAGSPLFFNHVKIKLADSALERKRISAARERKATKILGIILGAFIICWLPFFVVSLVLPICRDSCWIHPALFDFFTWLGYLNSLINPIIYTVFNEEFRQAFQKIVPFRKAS
The assay can be described thus: Radioligand competition binding, human 5-HT1D receptor ([3H]-serotonin). As to conditions: read-out: Affinity at 5-HT1D (Ki ± SEM). The method, then:
as §1, §2, §3, §6

For another assay, the target named is T7, human 5-HT2C receptor (Homo sapiens, UniProt P28335).
T7 construct: expressed in transfected cells
T7 sequence (P28335 33-458): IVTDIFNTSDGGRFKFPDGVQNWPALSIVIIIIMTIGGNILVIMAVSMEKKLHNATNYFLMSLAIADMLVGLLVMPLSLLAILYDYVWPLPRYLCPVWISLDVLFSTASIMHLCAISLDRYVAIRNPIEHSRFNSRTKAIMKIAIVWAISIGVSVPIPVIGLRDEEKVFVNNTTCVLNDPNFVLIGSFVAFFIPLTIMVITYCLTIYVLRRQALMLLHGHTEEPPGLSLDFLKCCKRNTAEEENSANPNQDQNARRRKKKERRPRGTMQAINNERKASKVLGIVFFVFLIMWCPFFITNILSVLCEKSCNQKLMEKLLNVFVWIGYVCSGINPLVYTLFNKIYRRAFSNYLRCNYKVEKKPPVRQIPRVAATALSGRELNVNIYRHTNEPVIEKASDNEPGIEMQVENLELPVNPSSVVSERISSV
Briefly: Radioligand binding, human 5-HT2C receptor. Here is the method:
as §1, §5

Another assay addresses T8, human 5-HT2A receptor (Homo sapiens, UniProt P28223).
T8 construct: expressed in transfected cells; host or cells: COS-7 (transient, pCEXV-3 vector)
The assay can be described thus: Radioligand competition binding, human 5-HT2A receptor ([3H] ketanserin). Here is the method:
as §1, §2
Human 5HT2A Receptor: The coding sequence of the human 5HT2A receptor was obtained from a human brain cortex cDNA library, and cloned into the cloning site of pCEXV-3 eukaryotic expression vector. This construct was transfected into COS-7 cells by the DEAE-dextran method. Cells were harvested after 72 hours and lysed by sonication in 5 mM Tris-HCl, 5 mM EDTA, pH 7.5. […] The affinity of compounds at 5-HT2A receptors were determined in equilibrium competition binding assays using [^3H] ketanserin (1 nM). […]

Another assay deals with T9, human 5-HT6 receptor (Homo sapiens, UniProt P50406).
T9 construct: expressed in transfected cells
T9 sequence (P50406 whole entry): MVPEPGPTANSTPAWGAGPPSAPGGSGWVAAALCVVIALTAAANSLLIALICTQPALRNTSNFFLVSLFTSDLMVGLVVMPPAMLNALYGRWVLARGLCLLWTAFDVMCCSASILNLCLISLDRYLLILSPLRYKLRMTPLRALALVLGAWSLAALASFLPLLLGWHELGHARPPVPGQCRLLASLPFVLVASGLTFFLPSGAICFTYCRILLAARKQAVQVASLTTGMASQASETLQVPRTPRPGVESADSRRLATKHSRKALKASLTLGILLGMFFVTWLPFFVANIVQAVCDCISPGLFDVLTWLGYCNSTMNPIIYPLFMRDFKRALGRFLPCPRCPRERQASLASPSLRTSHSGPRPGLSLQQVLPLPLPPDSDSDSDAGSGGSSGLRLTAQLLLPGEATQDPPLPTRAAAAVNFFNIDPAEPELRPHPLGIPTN
The assay can be described thus: Radioligand binding, human 5-HT6 receptor. As to conditions: read-out: Affinity at 5-HT6 (Ki ± SEM). The method, then: as §1, §5

In a further assay the target is T10, human 5-HT1B receptor (Homo sapiens, UniProt P28222).
T10 construct: expressed in transfected cells
T10 sequence (P28222 whole entry): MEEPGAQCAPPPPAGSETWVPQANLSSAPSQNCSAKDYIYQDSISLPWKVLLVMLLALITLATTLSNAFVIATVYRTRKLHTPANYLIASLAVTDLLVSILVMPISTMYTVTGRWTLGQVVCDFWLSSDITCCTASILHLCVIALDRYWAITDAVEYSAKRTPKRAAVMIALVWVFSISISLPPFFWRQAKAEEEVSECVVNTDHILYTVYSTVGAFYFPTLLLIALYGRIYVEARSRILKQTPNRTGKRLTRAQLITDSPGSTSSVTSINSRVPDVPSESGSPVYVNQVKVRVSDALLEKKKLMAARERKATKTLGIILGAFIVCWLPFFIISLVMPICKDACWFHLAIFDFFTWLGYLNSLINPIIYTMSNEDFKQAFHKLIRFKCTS
The assay can be described thus: Radioligand competition binding, human 5-HT1B receptor ([3H]-serotonin). To be noted: read-out: Affinity at 5-HT1B (Ki ± SEM). Here is the method: as §1, §2, §3, §6

The next assay has as its target T11, human 5-HT1A receptor (Homo sapiens, UniProt P08908).
T11 construct: expressed in transfected cells; host or cells: COS-7 (transient, pCEXV-3 vector)
T11 sequence (P08908 1-422): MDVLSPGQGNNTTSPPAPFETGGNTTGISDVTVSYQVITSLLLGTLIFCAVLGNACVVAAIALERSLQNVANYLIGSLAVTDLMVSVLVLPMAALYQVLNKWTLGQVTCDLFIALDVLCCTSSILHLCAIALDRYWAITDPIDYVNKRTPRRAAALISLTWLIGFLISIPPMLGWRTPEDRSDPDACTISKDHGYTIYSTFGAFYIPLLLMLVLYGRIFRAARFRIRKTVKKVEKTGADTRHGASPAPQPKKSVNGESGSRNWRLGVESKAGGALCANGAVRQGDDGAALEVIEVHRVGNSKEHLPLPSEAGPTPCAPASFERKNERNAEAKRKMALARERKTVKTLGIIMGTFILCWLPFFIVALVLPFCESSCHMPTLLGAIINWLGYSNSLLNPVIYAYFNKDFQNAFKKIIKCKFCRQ
Briefly: Radioligand competition binding, human 5-HT1A receptor (3H-8-OH-DPAT). To be noted: read-out: Affinity at 5-HT1A (Ki ± SEM). Here is the method:
as §1
The binding properties of compounds at different human receptors were determined in vitro using cultured cell lines that selectively express the receptor of interest. […]
Human 5HT2A Receptor: The coding sequence of the human 5HT2A receptor was obtained from a human brain cortex cDNA library, and cloned into the cloning site of pCEXV-3 eukaryotic expression vector. […] The affinity of compounds at 5-HT2A receptors were determined in equilibrium competition binding assays using [^3H] ketanserin (1 nM). […]
5-HT1A Receptor: The cDNA corresponding to the 5-HT1A receptor open reading frames and variable non-coding 5′- and 3′-regions, was cloned into the eukaryotic expression vector pCEXV-3. […] Radioligand binding assays were performed as described above for the 5-HT2A receptor, except that ^3H-8-OH-DPAT was used as the radioligand and nonspecific binding was determined by the addition of 10 μM mianserin.

The mark [2] stands for this setting: rat, prior administration of antagonist 1.0 mg/kg, i.p.

In general, Ki refers to a measure of affinity in units of concentration, obtained from inhibition or displacement.

Structures are written as SMILES. Where two headings read alike, the source gives them in different places. Some results are limits rather than exact numbers.

T2 sequence (P41595 whole entry): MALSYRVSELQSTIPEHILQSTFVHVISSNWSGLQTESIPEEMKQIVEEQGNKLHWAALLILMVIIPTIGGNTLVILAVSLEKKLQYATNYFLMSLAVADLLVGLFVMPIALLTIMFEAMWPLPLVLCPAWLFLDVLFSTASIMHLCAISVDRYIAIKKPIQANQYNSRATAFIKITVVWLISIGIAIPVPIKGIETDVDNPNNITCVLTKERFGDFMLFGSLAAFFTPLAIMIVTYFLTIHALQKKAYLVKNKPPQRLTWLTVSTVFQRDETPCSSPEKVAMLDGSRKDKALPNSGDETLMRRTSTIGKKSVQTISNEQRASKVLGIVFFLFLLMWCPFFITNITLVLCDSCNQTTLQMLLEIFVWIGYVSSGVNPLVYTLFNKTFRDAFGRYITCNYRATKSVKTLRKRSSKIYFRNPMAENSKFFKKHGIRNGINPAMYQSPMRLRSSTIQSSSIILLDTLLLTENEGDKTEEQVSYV
T8 sequence (P28223 whole entry): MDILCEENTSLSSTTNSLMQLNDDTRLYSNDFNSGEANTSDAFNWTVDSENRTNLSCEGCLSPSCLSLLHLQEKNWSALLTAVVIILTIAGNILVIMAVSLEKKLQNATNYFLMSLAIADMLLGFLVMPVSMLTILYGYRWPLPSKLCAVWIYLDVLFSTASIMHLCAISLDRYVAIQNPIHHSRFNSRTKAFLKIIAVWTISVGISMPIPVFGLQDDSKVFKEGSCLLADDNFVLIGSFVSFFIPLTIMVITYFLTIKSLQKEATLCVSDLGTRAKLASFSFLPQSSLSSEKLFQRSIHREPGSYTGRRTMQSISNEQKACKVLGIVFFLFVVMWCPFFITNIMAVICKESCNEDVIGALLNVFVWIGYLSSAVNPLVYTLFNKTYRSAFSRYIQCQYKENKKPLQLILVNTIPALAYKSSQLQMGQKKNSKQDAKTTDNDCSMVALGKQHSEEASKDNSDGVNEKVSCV

As for `CN(C)C1CCc2oc3ccc(NC(=O)c4ccncc4)cc3c2C1` (centres unmarked) [Compound 1, N-(N,N-Dimethyl-1,2,3,4-tetrahydro-2-aminodibenzofur-8-yl)-pyridine-4-carboxamide], the Ki is 7.11 ± 0.76 nM at human 5-HT1F receptor; 4200 ± 219 nM at human 5-HT2B receptor (human 5-HT2B, read-out: Affinity at 5-HT2B (Ki ± SEM)); 2900 ± 288 nM on human 5-HT1E receptor; greater than 5000 nM on human 5-HT7 receptor; 1870 ± 57 nM on human 5-HT4 receptor; 1780 ± 87 nM on human 5-HT1D receptor. Also, the Ki was 4760 ± 169 nM on human 5-HT2C receptor (human 5-HT2C, read-out: Affinity at 5-HT2C (Ki ± SEM)); greater than 5000 nM at human 5-HT2A receptor (human 5-HT2A, read-out: Affinity at 5-HT2A (Ki ± SEM)); greater than 5000 nM at human 5-HT6 receptor; 751 ± 68 nM on human 5-HT1B receptor; 367 ± 42 nM at human 5-HT1A receptor. Also, the “Effect on distension-induced rhythmic contractions of the rat bladder” value in assay [1] (i.p.) is reported as “inhibited”.
For the molecule `CN(C)[C@@H]1CCc2c([nH]c3ccc(NC(=O)c4ccc(F)cc4)cc23)C1` [Compound 2, (R)-(+)-6-(4-fluorobenzoyl)amino-2-(dimethyl)amino-1,2,3,4-tetrahydro-9H-carbazole], the Ki was found to be 3.47 ± 0.08 nM at human 5-HT1F receptor and 461 ± 102 nM at human 5-HT1E receptor. The “Effect on distension-induced rhythmic contractions of the rat bladder” value in [1] (i.p.) is given as “inhibited”.
With `O[C@H](COc1ccc2ccccc2c1)CN1CCC(O)(c2cnc3ccccc3c2)CC1` [Compound 3, 1-((2S)-hydroxy-3-(naphth-2-yloxy)prop-1-yl)-4-hydroxy-4-(quinolin-3-yl)piperidine], the Ki at human 5-HT1F receptor came to 4.31 ± 0.53 nM; on human 5-HT2B receptor, 496 ± 36 nM; at human 5-HT1E receptor, 3670 ± 505 nM; on human 5-HT7 receptor, 4410 ± 514 nM; on human 5-HT4 receptor, 405 ± 122 nM; on human 5-HT1D receptor, 1530 ± 400 nM. Moreover, the Ki was determined as 1370 ± 341 nM on human 5-HT2C receptor; 377 ± 94 nM on human 5-HT2A receptor; 4220 ± 399 nM at human 5-HT6 receptor; 1280 ± 144 nM at human 5-HT1B receptor; 591 ± 143 nM on human 5-HT1A receptor. Also, the “Blockade of the inhibitory effect of Compound 2 on bladder contractions” value in assay [1] (setting [2]) is reported as “complete blockade”. Besides, the “Blockade of the inhibitory effect of the GABAB agonist 3-APMPA on bladder contractions” value in assay [1] (setting [2]) was “failed to block”.
In the case of `CP(=O)(O)CCCN` [Compound 3-APMPA, 3-aminopropyl-methyl-phosphinic acid, reference compound], the “Effect on bladder contractions (positive control)” value in assay [1] (rat, after Compound 3, dose not given) was “inhibitory effect”.
